Two molecules from patent US10383841B2, “Antimicrobial and antiinflammatory composition” (Denovastella AB, priority 2005, dated 2019) can be followed below.

Common to all, as to type: cell-based
The subject of assay [1] is all microorganisms (five Malassezia strains, Candida albicans, Staphylococcus aureus). As to the kind of experiment: Agar dilution method, summary over all microorganisms. How it is done: (§1) The five strains of Malassezia were CBS7019 M. Furfur, CBS 1871 M. Pachydermatis, CBS7956 M. Slooffiae, CBS7966 M. Globosa and 42132 M. Sympodialis. The Staphylococcus aureus strain and Candida albicans H29 strain (grown on mycobiotic plates). Malassezias were cultured on PO plates and kept in room temperature. Candida albicans were grown on mycobiotic plates at room temperature. Preceding the first experiment the yeasts were reinoculated and stored for five days in a 32° C. thermostat. Afterwards they were continually reinoculated every week to ensure viable strains. S. aureus were refrigerated and reinoculated on a horse blood plate and incubated for one day in 37° C. before being included in any study.
(§2) DST-TG-agar (diagnostic sensitivity test agar) with a glycerol monostearate and tween content to meet the growth requirements of the Malassezias was used. […] The agar was obtained from the Microbiological Laboratories, Sahlgrenska, Gothenburg, Sweden. When received the agar was in a liquid form requiring storage at 55° C.
(§3) The oil extract from example 1 were diluted in DMF (dimethyl formamide) producing a stock solution with 20% extract and 80% DMF. A secondary stock solution was made by diluting a decided volume of the first stem solution in PBS. Finally the solutions were mixed with the soluble agar to obtain concentrations of the extract of 1, 0.5, 0.25, 0.125, 0.0625, 0.05, 0.025 and 0.0125% in the agar. Since the ethanol extract readily dissolved with the agar no emulsifier was needed. The ethanol extract was diluted directly with the agar to obtain concentrations of the extraxt of 1, 0.5, 0.125, 0.1, 0.05, 0.0125, 0.01 and 0.005% in the agar. No precipitations or supernatants were observed.
Microbes were harvested and suspended into PBS and manually counted in Barker chambers to receive concentrations of 10^7 cells/ml for the Malassezias and 10^5 cells/ml for the Staphylococci and Candida. […]
(§4) Plates were incubated in 37° C. for approximately 3 days and then read.
(In general: In agar dilution, organisms are placed on agar that contains the substance at set levels.)

In assay [2] the test system is M. globosa CBS7966. As to the kind of experiment: Agar dilution method, MIC. On the procedure:
as §1, §2, §3
(§5) Microbes were harvested and suspended into PBS and manually counted in Barker chambers to receive concentrations of 10^7 cells/ml for the Malassezias and 10^5 cells/ml for the Staphylococci and Candida. Due to poor growth of M. globosa, M. slooffiae and emulsions were modified to contain 10^8 cells/ml in the third experiment.
(§6) Using a Pasteur micropipette, plates were inoculated with 20 μl of emulsion. Plates were inoculated with either three or four microorganisms. Control plates containing only agar and plates with mirrored concentration series of DMF and ethanol were made. Additionally, all plates had paralleled controls.
as §4

Assay [3] has as its system M. furfur CBS7019. Put plainly: Agar dilution method, MIC. How it is done:
as §1, §2, §3, §5, §6, §4

For assay [4], the system named is M. sympodialis 42132. Put plainly: Agar dilution method, MIC. How it is done: as §1, §2, §3, §5, §6, §4
Assay [5] deals with Staphylococcus aureus. Put plainly: Agar dilution method, MIC. On the procedure: as §1, §2, §3, §5, §6, §4
For assay [6], the system named is Candida albicans H29. Put plainly: Agar dilution method, MIC. How it is done:
as §1, §2, §3, §5, §6, §4

In assay [7] the test system is M. pachydermatis CBS 1871. Put plainly: Agar dilution method, MIC. How it is done: as §1, §2, §3, §5, §6, §4
Assay [8] has as its system M. slooffiae CBS7956. As to the kind of experiment: Agar dilution method, MIC. How it is done: as §1, §2, §3, §5, §6, §4
The mark [9] stands for this setting: Experiment II, agar control: poor growth.
Where [10] appears, read: Experiment II, — = no MIC up to maximum titre of that line (Cineole 0.125%, DNS in ethanol 2.5% 0.025%).

As for `CC12CCC(CC1)C(C)(C)O2` [Cineole, 1,8-cineole], in assay [1], the “highest attained MIC of studied substances” value is on record as 0.5%. In assay [1] (subsequent experiment, four times the initial value), the “nearly all MICs” value was determined as 0.5%. For the same molecule, the MIC in assay [2] (setting [9]) came out at 0.125%; in assay [2] (Experiment III, 10^8 cells/ml), 1.000%; in assay [2] (Experiment III, 10^8 cells/ml, listed as 1,8-cineole), 1.0%; in assay [3] (setting [10]), 0.125%; in assay [3] (Experiment III) it was 0.500%; in assay [4] (setting [10]), 0.0625%. Also, the MIC in assay [4] (Experiment III) is reported as 0.500%; in assay [5] (Experiment III), 0.500%; in assay [6] (setting [10]), 0.125%; in assay [6] (Experiment III), 0.500%; in assay [7] (setting [10]) it was 0.125%; in assay [7] (Experiment III), 0.500%. Besides, the MIC was determined as 0.125% in assay [8] (setting [9]) and 0.500% in assay [8] (Experiment III, 10^8 cells/ml).
Regarding `C=CC1(C)CCC(C(C)C(=O)CC=C(C)C)O1` (stereo not drawn) [Davanone, davanone], in assay [1] (over the microorganisms), the MIC spread is given as 0.0125-0.125%. The MIC in assay [2] (setting [9]) was 0.025%; in assay [3] (setting [10]), 0.0625%; in assay [4] (setting [10]) it was 0.0125%; in assay [5] (setting [10]), 0.125%; in assay [6] (setting [10]) it was 0.0625%; in assay [7] (setting [10]) it was 0.0625%. The molecule also had an MIC in assay [8] (setting [9]) of 0.0125%.
